Test results as given in patent US6869973B2, “Nitrosated and nitrosylated taxanes, compositions and methods of use” (NitroMed, Inc., priority 2000, dated 2005).
Like-named read-outs stand apart in the source and are kept apart here.

Experiments:
[1] = test system: human coronary artery smooth muscle cells (CASMC); experiment: Vascular smooth muscle cell (SMC) antiproliferation assay; format: cell-based
Protocol: The cells used in this assay were human coronary artery smooth muscle cells (CASMC) supplied by Clonetics Corp. (San Diego, Calif.). They were maintained in SmGM-2 growth medium (Clonetics Corp.), which consisted of modified MCDB 131 medium supplemented with 5% (v/v) fetal bovine serum (FBS), 0.5 ng/mL human recombinant epidermal growth factor (EGF), 2 ng/mL human recombinant fibroblast growth factor (FGF), 5 μg/mL bovine insulin, 50 μg/mL gentamicin sulfate, and 50 ng/mL amphotericin B under humidified 95% air-5% CO2 at 37° C.
For the SMC antiproliferation assay, the cells were seeded at 3×10^4 viable cells in 2 mL of SmGM-2 medium per well of a Corning 24 well plate (Corning, N.Y.). Stock solutions of the test compounds were prepared just prior to addition to the cells by dissolving in ethanol at a concentration of 40 mM. This stock solution was diluted, as required, with ethanol to lower concentrations. […] Control cultures received 2 μL of ethanol per well (n=4). On the following morning, the cultures were examined microscopically and their condition recorded. On the third day after test compound addition (˜68 hr), the cultures were examined microscopically again and the viable cells counted with an hemacytometer following trypsinization with 0.25% trypsin-1 mM EDTA. Trypan Blue dye exclusion was used to discriminate between viable and dead cells.
(§1) The SMC antiproliferation assay was performed as described in Example 5.
as §1

rabbit platelets = experiment: Rabbit platelet aggregation assay (ADP-induced, platelet-rich plasma); format: cell-based, New Zealand White rabbits; conditions: rabbit PRP, 2 min pre-incubation, FIG. 2; for effect on platelet aggregation (qualitative): concentrations higher than 1 μM
Protocol: Blood was collected from New Zealand White rabbits into a sodium citrate solution. Platelet-rich plasma (PRP) and platelet-poor plasma (PPP) were obtained by centrifugation of the citrated blood. Aggregation of the platelets, which was induced by addition of adenosine diphosphate (ADP), was measured in a Chrono-Log Aggregometer (Havertown, Pa.). Stock solutions of the test compounds were prepared in ethanol at concentrations 1000-fold higher than the final concentrations. The test compounds at these different concentrations were pre-incubated with the PRP for 2 min with stirring prior to the addition of ADP. Inhibition of aggregation was quantified as follows: % Inhibition=100% (1−(Max. Ampl. Agg. in Test Compound/Max. Ampl. Agg. Control)) • “Max. Ampl. Agg. In Test Compound” was the measured maximum amplitude of the platelets in the PRP in the presence of and after pre-incubation with the test compound. • “Max. Ampl. Agg. Control” was the measured maximum amplitude of the platelets in the PRP without test compound addition.
Nitric oxide inhibits the aggregation of platelets whether added as the gas or in the form of a NO donor.

[2] = CASMC, viable cell count ~68 hr after compound addition, FIG. 1 / FIG. 3
[3] = CASMC, qualitative ranking against comparator named in the sentence

Row | Molecule | concentration that totally suppressed cell proliferation of the seeded cells [1, 2] [µM] | comparison of inhibition of proliferation of vascular smooth muscle cells [1, 3] | effect on platelet aggregation (qualitative) (rabbit platelets) | also measured
1 | CC(=O)OC1C(=O)C2(C)C(OC(=O)COCC(=O)OCC(CO[N+](=O)[O-])(CO[N+](=O)[O-])CO[N+](=O)[O-])CC3OCC3(OC(C)=O)C2C(OC(=O)c2ccccc2)C2(O)CC(OC(=O)C(OC(=O)COCC(=O)OCC(CO[N+](=O)[O-])(CO[N+](=O)[O-])CO[N+](=O)[O-])C(NC(=O)c3ccccc3)c3ccccc3)C(C)=C1C2(C)C [Example 4, (1S,2S,4S,9S,10S,15S,7R,12R)-4,12-diacetyloxy-9-{2-(({2,2-bis((nitrooxy)methyl)-3-(nitrooxy)propyl}oxycarbonyl)methoxy)acetyloxy}-1-hydroxy-10,14,17,17-tetramethyl-6-oxa-11-oxo-2-phenylcarbonyloxytetracyclo (11.3.1.0<3,10>0.0<4,7>)heptadec-13-en-15-yl(3S,2R)-2-{2-(({2,2-bis ((nitrooxy)methyl)-3-(nitrooxy)propyl}oxycarbonyl)methoxy)acetyloxy}-3-phenyl-3-(phenylcarbonylamino)propanoate] | 1 | superior to paclitaxel |  | 
2 | CC(=O)O[C@H]1C(=O)[C@@]2(C)C([C@H](OC(=O)c3ccccc3)[C@]3(O)C[C@H](OC(=O)[C@H](O)[C@@H](NC(=O)c4ccccc4)c4ccccc4)C(C)=C1C3(C)C)[C@]1(OC(C)=O)CO[C@@H]1C[C@@H]2OC(=O)CC(C)(C)S (stereo partly drawn) [Example 1d, 15-((3S,2R)-2-hydroxy-3-phenyl-3-(phenylcarbonylamino)propanoyloxy) (2S,4S,9S,10S,15S,7R,12R)-4,12-diacetyloxy-1-hydroxy-10,14,17,17-tetramethyl-6-oxa-11-oxo-2-phenylcarbonyloxytetracyclo(11.3.1.0<3,10>0.0<4,7>)heptadec-13-en-9-yl 3-methyl-3-sulfanylbutanoate] | 0.1 |  | did not prevent platelet aggregation | 
3 | 9-(2-({((2R)-2,3-bis(nitrooxy)propyl)oxycarbonyl}methoxy)acetyloxy)(1S,2S,4S,9S,10S,15S,7R,12R)-4,12-diacetyloxy-1-hydroxy-10,14,17,17-tetramethyl-6-oxa-11-oxo-2 phenylcarbonyloxytetracyclo (11.3.1.0<3,10>0.0<4,7>)heptadec-13-en-15-yl 2-(2-({((2R)-2,3-bis(nitrooxy)propyl)oxycarbonyl}methoxy)acetyloxy)(3S,2R)-3-phenyl-3-(phenylcarbonylamino)propanoate [Example 3] |  |  |  | comparison of inhibition of proliferation of vascular smooth muscle cells [1]: superior to paclitaxel; concentration that totally suppressed cell proliferation of the seeded cells [1]: 1 µM
4 | CC(=O)O[C@H]1C(=O)[C@@]2(C)C([C@H](OC(=O)c3ccccc3)C3(O)C[C@H](OC(=O)[C@H](O)[C@@H](NC(=O)c4ccccc4)c4ccccc4)C(C)=C1C3(C)C)[C@]1(OC(C)=O)CO[C@@H]1C[C@@H]2OC(=O)CC(C)(C)SN=O (stereo partly drawn) [Example 1, 15-((3S,2R)-2-hydroxy-3-phenyl-3-(phenylcarbonylamino)propanoyloxy) (2S,4S,9S,10S,15S,7R,12R)-4,12-diacetyloxy-1-hydroxy-10,14,17,17-tetramethyl-6-oxa-11-oxo-2-phenylcarbonyloxytetracyclo (11.3.1.0<3,10>0.0<4,7>)heptadec-13-en-9-yl 3-methyl-3-(nitrosothio) butanoate] | 0.1 | superior to its non-nitrosylated derivative (Example 1d) | inhibited platelet aggregation, but required higher concentrations than SNO-Glu | 
5 | N[C@@H](CCC(=O)N[C@@H](CSN=O)C(=O)NCC(=O)O)C(=O)O [S-Nitrosoglutathione, reference compound] |  |  |  | final concentration that totally inhibited platelet aggregation (rabbit platelets): 1 µM
6 | CC(=O)O[C@H]1C(=O)[C@@]2(C)[C@H]([C@H](OC(=O)c3ccccc3)[C@]3(O)C[C@H](OC(=O)[C@H](O)[C@@H](NC(=O)c4ccccc4)c4ccccc4)C(C)=C1C3(C)C)[C@]1(OC(C)=O)CO[C@@H]1C[C@@H]2O [Paclitaxel, reference compound] | 0.01 |  | did not prevent platelet aggregation | 
